{"source": "ChEMBL document CHEMBL3885881", "about": "“DrugMatrix”", "species_on_record": "Rattus norvegicus", "test": "DrugMatrix - Regimen: Daily Repeat", "assay_type": "toxicity, organism-based, Sprague-Dawley", "design": "regimen Daily Repeat, gender Male, age 6-8 weeks", "conditions": "in vivo, po, 0 mg/kg, route oral GAVAGE, dose level Control, vehicle .5 % CMC; for BASOPHIL / EOSINOPHIL / ERYTHROCYTE COUNT / HEMATOCRIT / HEMOGLOBIN / LEUKOCYTE COUNT / LYMPHOCYTE / MEAN CORPUSCULAR HEMOGLOBIN / MEAN CORPUSCULAR HEMOGLOBIN CONCENTRATION / MEAN CORPUSCULAR VOLUME / MONOCYTE / NEUTROPHIL / PLATELET COUNT: tissue Blood; for ALANINE AMINOTRANSFERASE / ALBUMIN / ALKALINE PHOSPHATASE / ASPARTATE AMINOTRANSFERASE / BLOOD UREA NITROGEN / CHLORIDE / CHOLESTEROL / CREATINE PHOSPHOKINASE / CREATININE / GLUCOSE / PHOSPHORUS / POTASSIUM / SODIUM / TOTAL BILIRUBIN / TOTAL PROTEIN: tissue Plasma"}
{"compound": "Clc1ccccc1CN1CCc2sccc2C1", "note": "[TICLOPIDINE]", "values": [{"measurement": "BASOPHIL", "setting": "72 h, time 3 day", "result": 0, "unit": "%"}, {"measurement": "EOSINOPHIL", "setting": "72 h, time 3 day", "result": 0, "unit": "%"}, {"measurement": "ERYTHROCYTE COUNT", "setting": "72 h, time 3 day", "result": 6.19, "unit": "x10E6/uL"}, {"measurement": "HEMATOCRIT", "setting": "72 h, time 3 day", "result": 36.94, "unit": "%"}, {"measurement": "HEMOGLOBIN", "setting": "72 h, time 3 day", "result": 14.58, "unit": "G/DL"}, {"measurement": "LEUKOCYTE COUNT", "setting": "72 h, time 3 day", "result": 11.54, "unit": "x10E3/uL"}, {"measurement": "LYMPHOCYTE", "setting": "72 h, time 3 day", "result": 84.8, "unit": "%"}, {"measurement": "MEAN CORPUSCULAR HEMOGLOBIN", "setting": "72 h, time 3 day", "result": 23.58, "unit": "pg"}, {"measurement": "MEAN CORPUSCULAR HEMOGLOBIN CONCENTRATION", "setting": "72 h, time 3 day", "result": 39.44, "unit": "G/DL"}, {"measurement": "MEAN CORPUSCULAR VOLUME", "setting": "72 h, time 3 day", "result": 59.76, "unit": "fL"}, {"measurement": "MONOCYTE", "setting": "72 h, time 3 day", "result": 1.4, "unit": "%"}, {"measurement": "NEUTROPHIL", "setting": "72 h, time 3 day", "result": 13.8, "unit": "%"}, {"measurement": "PLATELET COUNT", "setting": "72 h, time 3 day", "result": 1068.8, "unit": "x10E3/uL"}, {"measurement": "ALANINE AMINOTRANSFERASE", "setting": "72 h, time 3 day", "result": 38.17, "unit": "u/L"}, {"measurement": "ALBUMIN", "setting": "72 h, time 3 day", "result": 3.88, "unit": "G/DL"}, {"measurement": "ALKALINE PHOSPHATASE", "setting": "72 h, time 3 day", "result": 391.33, "unit": "u/L"}, {"measurement": "ASPARTATE AMINOTRANSFERASE", "setting": "72 h, time 3 day", "result": 69.83, "unit": "u/L"}, {"measurement": "BLOOD UREA NITROGEN", "setting": "72 h, time 3 day", "result": 15, "unit": "mg/dL"}, {"measurement": "CHLORIDE", "setting": "72 h, time 3 day", "result": 104.17, "unit": "MEQ/L"}, {"measurement": "CHOLESTEROL", "setting": "72 h, time 3 day", "result": 72.17, "unit": "mg/dL"}, {"measurement": "CREATINE PHOSPHOKINASE", "setting": "72 h, time 3 day", "result": 174.33, "unit": "u/L"}, {"measurement": "CREATININE", "setting": "72 h, time 3 day", "result": 0.58, "unit": "mg/dL"}, {"measurement": "GLUCOSE", "setting": "72 h, time 3 day", "result": 192.67, "unit": "mg/dL"}, {"measurement": "PHOSPHORUS", "setting": "72 h, time 3 day", "result": 10.52, "unit": "mg/dL"}, {"measurement": "POTASSIUM", "setting": "72 h, time 3 day", "result": 6.8, "unit": "MEQ/L"}, {"measurement": "SODIUM", "setting": "72 h, time 3 day", "result": 149.67, "unit": "MEQ/L"}, {"measurement": "TOTAL BILIRUBIN", "setting": "72 h, time 3 day", "result": 0.78, "unit": "mg/dL"}, {"measurement": "TOTAL PROTEIN", "setting": "72 h, time 3 day", "result": 6.28, "unit": "G/DL"}, {"measurement": "BASOPHIL", "setting": "120 h, time 5 day", "result": 0, "unit": "%"}, {"measurement": "EOSINOPHIL", "setting": "120 h, time 5 day", "result": 0.17, "unit": "%"}, {"measurement": "ERYTHROCYTE COUNT", "setting": "120 h, time 5 day", "result": 6.72, "unit": "x10E6/uL"}, {"measurement": "HEMATOCRIT", "setting": "120 h, time 5 day", "result": 40.02, "unit": "%"}, {"measurement": "HEMOGLOBIN", "setting": "120 h, time 5 day", "result": 15.83, "unit": "G/DL"}, {"measurement": "LEUKOCYTE COUNT", "setting": "120 h, time 5 day", "result": 9.5, "unit": "x10E3/uL"}, {"measurement": "LYMPHOCYTE", "setting": "120 h, time 5 day", "result": 87.17, "unit": "%"}, {"measurement": "MEAN CORPUSCULAR HEMOGLOBIN", "setting": "120 h, time 5 day", "result": 23.57, "unit": "pg"}, {"measurement": "MEAN CORPUSCULAR HEMOGLOBIN CONCENTRATION", "setting": "120 h, time 5 day", "result": 39.62, "unit": "G/DL"}, {"measurement": "MEAN CORPUSCULAR VOLUME", "setting": "120 h, time 5 day", "result": 59.55, "unit": "fL"}, {"measurement": "MONOCYTE", "setting": "120 h, time 5 day", "result": 1.67, "unit": "%"}, {"measurement": "NEUTROPHIL", "setting": "120 h, time 5 day", "result": 11, "unit": "%"}, {"measurement": "PLATELET COUNT", "setting": "120 h, time 5 day", "result": 1053.67, "unit": "x10E3/uL"}, {"measurement": "ALANINE AMINOTRANSFERASE", "setting": "120 h, time 5 day", "result": 26.33, "unit": "u/L"}, {"measurement": "ALBUMIN", "setting": "120 h, time 5 day", "result": 4.02, "unit": "G/DL"}, {"measurement": "ALKALINE PHOSPHATASE", "setting": "120 h, time 5 day", "result": 316.67, "unit": "u/L"}, {"measurement": "ASPARTATE AMINOTRANSFERASE", "setting": "120 h, time 5 day", "result": 61.33, "unit": "u/L"}, {"measurement": "BLOOD UREA NITROGEN", "setting": "120 h, time 5 day", "result": 18.67, "unit": "mg/dL"}, {"measurement": "CHLORIDE", "setting": "120 h, time 5 day", "result": 108, "unit": "MEQ/L"}, {"measurement": "CHOLESTEROL", "setting": "120 h, time 5 day", "result": 65.17, "unit": "mg/dL"}, {"measurement": "CREATINE PHOSPHOKINASE", "setting": "120 h, time 5 day", "result": 161.17, "unit": "u/L"}, {"measurement": "CREATININE", "setting": "120 h, time 5 day", "result": 0.75, "unit": "mg/dL"}, {"measurement": "GLUCOSE", "setting": "120 h, time 5 day", "result": 177.33, "unit": "mg/dL"}, {"measurement": "PHOSPHORUS", "setting": "120 h, time 5 day", "result": 9.72, "unit": "mg/dL"}, {"measurement": "POTASSIUM", "setting": "120 h, time 5 day", "result": 6.18, "unit": "MEQ/L"}, {"measurement": "SODIUM", "setting": "120 h, time 5 day", "result": 150.5, "unit": "MEQ/L"}, {"measurement": "TOTAL BILIRUBIN", "setting": "120 h, time 5 day", "result": 0.68, "unit": "mg/dL"}, {"measurement": "TOTAL PROTEIN", "setting": "120 h, time 5 day", "result": 6.55, "unit": "G/DL"}]}
